This is an account of results in patent US20250243160A1, “INDOLE DERIVATIVES FOR TARGETING AUTOPHAGY” (Automera PTE. LTD, priority 2024, published 2025).

Assay [1] has as its system p62 puncta. Nature of the assay: p62 puncta immunocytochemistry imaging in HeLa cells. It is filed as cell-based. Particulars: 24 hours treatment, relative to vehicle control (DMSO). Summed up: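 Following 24 h compound or DMSO treatment, HeLa cells were fixed and immunostained for p62 with DAPI counterstain. Puncta counted by imaging on EVOS M7000 (20× objective) or Operetta CLS (63× water objective); reported as fold change versus DMSO.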

Assay [2] deals with T1, p62 oligomers (Homo sapiens, UniProt Q13501).
T1 construct: endogenous in cells; host or cells: HeLa
Nature of the assay: p62 oligomerization assay by Western blot in HeLa cells. It is filed as cell-based. Particulars: 24 hours treatment, relative to vehicle control (DMSO). On the procedure:
HeLa cells were seeded in 6-well plates (700,000 cells) and allowed to adhere overnight. Media was replaced one hour before administering either vehicle (DMSO) or test compounds. After 24 hours of treatment, the media was discarded, and cells were rinsed once with ice-cold 1×PBS before detached from plates with ice-cold RIPA Lysis and Extraction Buffer (Thermo Fisher Scientific) which was supplemented with protease and phosphatase inhibitors. The resulting cell suspensions were transferred to pre-chilled microcentrifuge tubes, incubated on ice for 20 min with intermittent mixing and then centrifuged at 12,000 rpm for 20 min at 4° C. The supernatants were then aspirated slowly and transferred into new tubes kept on ice. The protein concentration in the samples was determined using BCA kit (Thermo Fisher Scientific) as per manufacturer's instructions.
For the p62 oligomerization and LC3 lipidation assays, cell lysates were prepared using RIPA buffer supplemented with 2% SDS and benzonase (Sigma). The lysates were then combined with 4× Laemmli protein sample buffer (Bio-Rad), heated at 70° C. for 10 min and subjected to a brief centrifugation of 10-15 seconds.
For p62 oligomerization and LC3 lipidation assays, lysates containing 30 μg of protein and for BRD4 and FKBP12(F36V) degradation assays, lysates containing 20 μg of protein, were loaded slowly into the wells of 4-20% gradient Tris-glycine gels (Bio-Rad). The gels were run at 100V until completion and transferred onto PVDF membranes. Membranes were blocked using 5% milk in TBS-Tween (0.1%) buffer at room temperature for 1 hour. The membranes were incubated with primary antibody in 5% milk-TBST with shaking, overnight at 4° C. The primary antibodies used were: p62 (Novus Biologicals 2C11, H00008878-MO1), LC3A/B (Cell Signalling Technology D3U4C, 12741S), FKBP12 (Abcam ab24373), BRD4 (Cell Signalling Technology E2A7X, 13440S), GAPDH (Cell Signalling Technology D4C6R, 97166S), and β-Actin (Proteintech 66009-1-Ig). Following primary antibody incubation, membranes were washed thrice with TBST 10 min before and after incubation with secondary-HRP conjugated antibody in 5% milk-TBST for 1 hour at room temperature. The secondary antibodies used were: Anti-Mouse IgG HRP Conjugate (Promega W4021B) and Anti-Rabbit IgG HRP Conjugate (Promega W4011). For the p62 oligomerization assay, the total protein levels were assessed using Ponceau staining (Thermo Fisher Scientific) of PVDF membrane as per recommendation by manufacturer's guidelines.
Imaging was acquired using SuperSignal™ West Pico PLUS Chemiluminescent Substrate (Thermo Fisher Scientific) with iBright Invitrogen FL100 imaging system. Band signal intensity, reflective of protein concentrations, were quantified using Invitrogen™ iBright™ Analysis and Image J software.
HeLa cells were treated with compounds for 24 hours to evaluate the effect of these compounds on p62 oligomerisation activity. The resulting changes in levels of p62 oligomers were assessed by Western blotting, as described in experimental procedures. The fold change of p62 oligomer levels induced by compound treatment relative to vehicle control (DMSO) was determined and summarized in Table 8. Specifically, FIGS. 2A-C show Western blot images and their corresponding quantification showing the levels of high molecular weight (100-200 kDa) p62 oligomers by 24 hours compound treatments at listed concentrations, relative to vehicle control (DMSO) in HeLa cells. Protein loading consistencies was assessed by Ponceau staining (not shown).
A general note: In western blotting, separated proteins are transferred to a membrane and probed.

T1 sequence (Q13501 whole entry): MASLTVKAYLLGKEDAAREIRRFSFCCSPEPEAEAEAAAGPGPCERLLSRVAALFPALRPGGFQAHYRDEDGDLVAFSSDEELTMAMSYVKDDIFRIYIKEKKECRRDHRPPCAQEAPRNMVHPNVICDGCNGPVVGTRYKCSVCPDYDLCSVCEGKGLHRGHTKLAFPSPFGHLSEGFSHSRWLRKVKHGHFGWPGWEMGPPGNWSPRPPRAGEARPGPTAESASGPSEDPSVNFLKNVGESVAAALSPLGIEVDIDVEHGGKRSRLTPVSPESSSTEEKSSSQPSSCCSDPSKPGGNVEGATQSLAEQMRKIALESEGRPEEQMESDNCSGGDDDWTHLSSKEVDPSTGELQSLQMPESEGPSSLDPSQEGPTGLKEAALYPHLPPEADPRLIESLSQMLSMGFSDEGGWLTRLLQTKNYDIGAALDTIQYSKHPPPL

As to `OCCNCc1cc(F)cc2c1ccn2Cc1ccc(Cl)cc1` [Compound 45, 2-(((1-(4-chlorobenzyl)-6-fluoro-1H-indol-4-yl)methyl)amino)ethan-1-ol], in assay [1], the “p62 puncta (fold change of p62 puncta levels)” value was “++ (>2-fold change in p62 puncta levels relative to DMSO control)”. Moreover, the “p62 oligomerization (fold change of p62 oligomer levels)” value in assay [2] is reported as “++ (>2-fold change relative to DMSO control)”.
For `OCCNCc1cccc2c1ccn2Cc1ccccc1` [Compound 1, 2-(((1-benzyl-1H-indol-4-yl)methyl)amino)ethan-1-ol], the “p62 puncta (fold change of p62 puncta levels)” value in assay [1] was “+ (<2-fold change in p62 puncta levels relative to DMSO control)”. The “p62 oligomerization (fold change of p62 oligomer levels)” value in assay [2] was “++ (>2-fold change relative to DMSO control)”.
For `OCCNCc1cc(F)cc2c1ccn2Cc1ccc(F)cc1` [Compound 44], in assay [1], the “p62 puncta (fold change of p62 puncta levels)” value was “++ (>2-fold change in p62 puncta levels relative to DMSO control)”. In assay [2], the “p62 oligomerization (fold change of p62 oligomer levels)” value is “++ (>2-fold change relative to DMSO control)”.
